US8367659B2, “Oxazinyl isoflavonoid compounds, medicaments and use” (Marshall Edwards, Inc., priority 2007, dated 2013)
Values belong to the molecule of their own block, whether it stands above or below them.

How the values were obtained:
[1] = Free radical scavenging with DPPH; settings: DPPH, 20 minutes, absorbance 517 nm; Table 4; read-out: Free radical scavenging ability EC50
Protocol: The antioxidant (free radical trapping) activity of test compounds was assessed using the stable free radical compound 2,2-diphenyl-1-picrylhydrazyl (DPPH). A stock solution of DPPH was prepared at a concentration of […] in ethanol and mixed for 10 minutes prior to use. Test compounds at a concentration of 100 μM were reacted with DPPH for, 20 minutes, alter which time the absorbance at 517 nm was determined. Initial screening of was done at 100 μM. The change in absorbance at 517 nm was compared to a reagent blank (DPPH with ethanol alone). […] The IC50 values were estimated as the concentration of test compound that caused a 0.6 change in absorbance (with 1.2 absorbance units representing total scavenging of the DPPH radical).
The antioxidant (free radical trapping) activity of test compounds was assessed using the stable free radical compound 2,2-diphenyl-1-picrylhydrazyl (DPPH). A stock solution of DPPH was prepared […] in ethanol and mixed for 10 minutes prior to use. Initial screening of test compound at a concentration of 100 μM was reacted with DPPH for 20 minutes, after which time the absorbance at 517 nm was determined. The change in absorbance was compared to a reagent blank (DPPH with ethanol alone). […] The IC50 value was estimated as the concentration of test compound that causes a 0.6 change in absorbance (with 1.2 absorbance units representing total scavenging of the DPPH radical).

[2] = system: TXB2 synthesis in RAW 264.7 murine macrophages; test: LPS-induced TXB2 synthesis in RAW 264.7 murine macrophages; assay type: cell-based, mouse; settings: 10 μM; relative to vehicle alone; FIG. 4
Protocol: (§1) The mouse macrophage cell line RAW 264.7 was cultured in DMEM supplemented with foetal calf serum (FCS), […] glutamine and 50 U/ml penicillin/streptomycin. Cells were treated with either test compound (in 0.025% DMSO) or vehicle alone, and added one hour before 50 ng/ml LPS. After incubation for 24 h, culture media was collected for PGE2 or TXB2 measurement by ELISA (Cayman Chemical), and TNFα measurement using an ELISA (Becton Dickinson). Test compounds were examined a concentration of 10 μM. […] Consequently, to assess the effect of test compounds on various analytes, cell viability was taken into consideration with the use of the formula: Actual effect of test compound=measured effect−(effect on cell viability×measured effect)

[3] = system: human umbilical vein smooth muscle cells (HUVSMC); test: Proliferation of human umbilical vein smooth muscle cells (MTT); assay type: cell-based; settings: 10 μM; 10% FCS, 5 days; FIG. 8
Protocol: The effect of test compounds on human umbilical vein smooth muscle cells (HUVSMC) was examined. Cells were seeded into 96 well plates at a low seeding rate of 1.6×10^3 cells per well, and allowed to attach for 24 hours. The cells were then washed twice with medium without FCS and incubated in medium without FCS for 20 hours to serum starve them. Analogue was prepared in medium without FCS at 20 μM and added to the plates and incubated for one hour. Final analogue concentration was therefore 10 μM. The cells were then stimulated by adding medium +20% FCS, to give a final FCS concentration of 10%. The cells were incubated until the control cells i.e. those with FCS and no compound, were just confluent (5 days). An MTT assay was performed, and difference in absorbance in analogue treated cells from the control was calculated using the formula: test/control*100−100. Results
The effect of test compounds on human umbilical vein smooth muscle cells (HUVSMC), was examined. Cells, tissue explants from a neonate (HRI—passage 2), were seeded into 96 well plates at 1×10^3 cells per well, and allowed to attach for 24 hours. They were then washed twice and incubated in medium without foetal calf serum (FCS) for 24-48 hours to serum-starve them. Test compounds were prepared in medium without FCS and added to the plates and incubated for one hour. Medium with FCS was added to give a final concentration of 10% and the plates incubated for 4-5 days until the controls were just confluent.

cancer cell lines = test: Anti-cancer activity, cancer cell lines tested as a group (MTT); assay type: cell-based
[4] = system: PGE2 synthesis in RAW 264.7 murine macrophages; test: LPS-induced PGE2 synthesis in RAW 264.7 murine macrophages; assay type: cell-based, mouse; settings: 10 μM; relative to vehicle alone; FIG. 3
Protocol: as §1

CP70 = test: Anti-cancer activity, CP70 ovarian cancer cells (MTT); assay type: cell-based; settings: 120 h, 5 days
HPAC = test: Anti-cancer activity, HPAC pancreatic cancer cells (MTT); assay type: cell-based; settings: Homo sapiens, 120 h, 5 days
MM200 = test: Anti-cancer activity, MM200 melanoma cells (MTT); assay type: cell-based; settings: 120 h; 5 days, MTT
[5] = target: T1, GAL4-PPARγ fusion protein (Homo sapiens, UniProt P37231); test: PPARγ activity in transfected HEK293 cells (beta-lactamase reporter); assay type: cell-based; settings: FIG. 13: 1 μM
T1 construct: host or cells: HEK293 (human embryonic kidney), stably transfected
Protocol: Human HEK293 cells, stably transfected with the PPARγ ligand binding domain fused with the DNA binding domain of the GAL4 protein (GAL4-PPARγ fusion protein), produce beta-lactamase when incubated with PPARγ ligands. Transfected human kidney embryonic cells (Invitrogen Inc., Carlsbad, Calif.) were seeded onto matrigel in 96-well plates and allowed to attach overnight. The following day, vehicle alone (DMSO) or test compound at 1, 5 and 10 μM was added at varying concentrations to cells and incubated for 16-18 hours. Cells were then loaded with a FRET-based fluorescent substrate to assess beta-lactamase activity. Cells were protected from light, and incubated at room temperature for 2 h. Plates were read on a fluorescence plate reader with an excitation wavelength of 409 nm and emission wavelengths of 460 nm and 530 nm. Results were expressed as a ratio of these two wavelengths after the background (cell-free control wells) had been subtracted. PPARγ activity was thus determined by measuring beta-lactamase activity as assessed by a fluorescent product to substrate ratio.

[6] = system: NO synthesis in RAW 264.7 murine macrophages; test: LPS-induced NO synthesis in RAW 264.7 murine macrophages (Griess); assay type: cell-based, mouse; settings: 10 μM; relative to vehicle alone; FIG. 6
Protocol: as §1, with “Dickinson). Nitrite concentration is a quantitative indicator of NO production and was determined by the Griess Reaction. Briefly, 100 μL of Griess reagent was added to 50 μL of each supernatant in duplicate. The absorbance at 550 nm was measured (Molecular Devices, SpectraMax 250 microplate spectrophotometer, CA, USA), and nitrite concentrations were determined against a standard curve of sodium nitrite. The percentage nitrite inhibition was calculated as: [100−(nitrite concentration of sample/nitrite of vehicle control LPS cells)×100]. Results” for “Dickinson).”

T1 sequence (P37231 238-503 limits assumed): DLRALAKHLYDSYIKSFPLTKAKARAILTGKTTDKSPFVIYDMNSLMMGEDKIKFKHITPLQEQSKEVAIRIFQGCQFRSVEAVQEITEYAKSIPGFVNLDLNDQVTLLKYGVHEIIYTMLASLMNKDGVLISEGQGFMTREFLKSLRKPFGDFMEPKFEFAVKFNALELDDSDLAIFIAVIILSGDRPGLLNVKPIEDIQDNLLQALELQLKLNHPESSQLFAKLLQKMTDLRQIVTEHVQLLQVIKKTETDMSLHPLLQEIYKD
T1 sequence (P04386 1-147 partner limits assumed): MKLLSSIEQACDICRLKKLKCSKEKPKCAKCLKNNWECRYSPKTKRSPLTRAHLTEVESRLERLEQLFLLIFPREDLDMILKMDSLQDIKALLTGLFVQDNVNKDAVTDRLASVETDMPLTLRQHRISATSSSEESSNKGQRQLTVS

SMILES: COc1ccc(CN2COc3cc4c(cc3C2)C=C(c2ccc(OC)c(OC)c2)CO4)cc1 [Compound 9, 7-(3,4-Dimethoxyphenyl)-3-(4-methoxybenzyl)-2,3,4,8-tetrahydrochromeno[6,7-e][1,3]oxazine]
EC50 [1]: 36 µM
mean change of LPS-induced TXB2 synthesis [2]: greatest inhibition
toxicity against cancer cells (cancer cell lines; where tested): moderate toxicity
mean change of LPS-induced PGE2 synthesis [4]: greatest inhibition

SMILES: COc1ccc(C2=Cc3cc4c(cc3OC2)OCN(c2ccccc2)C4)cc1OC [Compound 12, 7-(3,4-Dimethoxyphenyl)-3-phenyl-2,3,4,8-tetrahydrochromeno[6,7-e][1,3]oxazine]
mean change of LPS-induced PGE2 synthesis [4]: greatest inhibition

SMILES: COCCCN1COc2cc3c(cc2C1)C=C(c1ccc(O)cc1)CO3 [Compound 16, 4-(3-(3-Methoxypropyl)-2,3,4,8-tetrahydrochromeno[6,7-e][1,3]oxazin-7-yl)phenol]
EC50 [1]: 22 µM
IC50 (HPAC): 3.88 µM
IC50 (MM200): 1.8 µM
IC50 (cancer cell lines; read-out: most potent activity against the respective cell lines tested): 1 to 5 µM

SMILES: Cc1ccc(N2COc3cc4c(cc3C2)C=C(c2ccc(O)cc2)CO4)cc1 [Compound 18, 4-(3-p-Tolyl-2,3,4,8-tetrahydrochromeno[6,7-e][1,3]oxazin-7-yl)phenol]
EC50 [1]: 29 µM
PPARγ activation, increase in beta-lactamase activity over media only control [5]: PPARγ agonist activity
effect on proliferation of HUVSMCs induced by FCS [3]: significantly inhibited the proliferation

SMILES: COc1ccc(C2=Cc3cc4c(c(C)c3OC2)OCN(c2ccc(C)cc2)C4)cc1OC [Compound 19, 7-(3,4-Dimethoxyphenyl)-10-methyl-3-p-tolyl-2,3,4,8-tetrahydrochromeno[6,7-e][1,3]oxazine]
EC50 [1]: 41 µM
effect on proliferation of HUVSMCs induced by FCS [3]: significantly inhibited the proliferation
mean change of LPS-induced NO synthesis [6]: greatest inhibition

SMILES: Cc1ccc(N2COc3cc4c(cc3C2)C=C(c2cccc(O)c2)CO4)cc1 [Compound 20, 3-(3-p-Tolyl-2,3,4,8-tetrahydrochromeno[6,7-e][1,3]oxazin-7-yl)phenol]
EC50 [1]: 38 µM
PPARγ activation, increase in beta-lactamase activity over media only control [5]: PPARγ agonist activity
effect on proliferation of HUVSMCs induced by FCS [3]: significantly inhibited the proliferation

SMILES: CCCN1COc2c(cc3c(c2Br)OCC(c2ccc(O)cc2)=C3)C1 [Compound 25, 4-(10-Bromo-3-propyl-2,3,4,8-tetrahydrochromeno[6,7-e][1,3]oxazin-7-yl)phenol]
EC50 [1]: 23 µM

SMILES: Cc1c2c(cc3c1OCN(c1ccc(O)cc1)C3)C=C(c1cccc(O)c1)CO2 [Compound 26, 3,4′-(10-Methyl-chromeno[6,7-e][1,3]oxazine-3,7(2H,4H,8H)-diyl)diphenol]
EC50 [1]: 26 µM

SMILES: CC(C)(C)c1ccc(CN2COc3cc4c(cc3C2)C=C(c2ccc(O)cc2)CO4)cc1 [Compound 29, 4-(3-(4-tert-Butylbenzyl)-2,3,4,8-tetrahydrochromeno[6,7-e][1,3]oxazin-7-yl)phenol]
PPARγ activation, increase in beta-lactamase activity over media only control [5]: PPARγ agonist activity

Further molecules by falling EC50 [1], results first:

EC50 [1]: 44 µM
SMILES: N#Cc1ccc(N2COc3cc4c(cc3C2)C=C(c2cccc(O)c2)CO4)cc1 [Compound 21, 4-(7-(3-Hydroxyphenyl)chromeno[6,7-e][1,3]oxazin-3(2H,4H,8H)-yl)benzonitrile]

EC50 [1]: 41 µM
SMILES: COc1ccc(C2=Cc3cc4c(c(C)c3OC2)OCN(Cc2ccccc2)C4)cc1OC [Compound 13, 3-Benzyl-7-(3,4-dimethoxyphenyl)-10-methyl-2,3,4,8-tetrahydrochromeno[6,7-e][1,3]oxazine]

EC50 [1]: 22.5 µM
IC50 (CP70): 4.41 µM
IC50 (HPAC): 7.89 µM
IC50 (MM200): 9.4 ± 1.5 µM
SMILES: Oc1ccc(C2=Cc3cc4c(cc3OC2)OCN(Cc2ccc(Cl)cc2)C4)cc1 [Compound 15, 4-(3-(4-Chlorobenzyl)-2,3,4,8-tetrahydrochromeno[6,7-e][1,3]oxazin-7-yl)phenol]
activity against CP70, HPAC and MM200 cell lines (cancer cell lines; CP70, HPAC and MM200): active

EC50 [1]: 16 µM
SMILES: Oc1ccc(C2=Cc3cc4c(cc3OC2)OCN(c2ccc(O)cc2)C4)cc1 [Compound 8, 4,4′-(Chromeno[6,7-e][1,3]oxazine-3,7 (2H,4H,8H)-diyl)diphenol]
mean change of LPS-induced TXB2 synthesis [2]: greatest inhibition
effect on proliferation of HUVSMCs induced by FCS [3]: significantly inhibited the proliferation
